Values quoted from earlier work, collected in patent publication EP0176772A1, “Process for sustaining the release of vitamins C and E” (RODISMA Pharmazeutische Produkte GmbH, priority 1984, dated 1986).
Where two headings read alike, the source gives them in different places. Blank lines part the entries; values can stand above or below the compound they belong to.

Assays:
[1] = not given; remark: listed apart in the source

Compound: Cc1c(C)c2c(c(C)c1O)CCC(C)(CCCC(C)CCCC(C)CCCC(C)C)O2 [D-alpha-Tocopherol]
- maximale Plasmaspiegel, time of (orale Verabreichung von 600 mg an eine Versuchsperson (Hashim und Schuttringer)): ~7 Stunden
- Maximum der Plasma-Tocopherol-Konzentration, time of (orale Verabreichung von (Hashim und Schuttringer)): 7 Stunden

- Resorption ([1]; Einzeldosen bis 180 mg, dosisproportional (Kübler und Gehler)): ~70%
- resorbiert ([1]; Einzeldosis von 1 g, 3-Kompartiment-Modell (Hornig und Moser)): 75%
- resorbiert ([1]; orale Ascorbinsäurebelastung mit 12 g): 16%
Compound: O=C1O[C@H]([C@@H](O)CO)C(O)=C1O [Vitamin C, Ascorbinsäure]

- Maximum (plasma vitamin E), time of (human, in vivo, po): 7 Stunden
Compound: Vitamin E
